Assay results from patent publication US8466176B2 (priority 2008, dated 2013).
Read-outs that look alike come from different tables or passages of the source.

What was measured:
[1] = Measurement of logP values according EEC directive 79/831 Annex V.A8 by HPLC on reversed phase columns; type: physicochemical; conditions: for chromatographic logP: reversed phase HPLC columns, read-out: log p
[2] = method [c]: LC-MS at pH 7.8, 0.001 molar ammonium hydrogen carbonate in water, linear gradient 10% to 95% acetonitrile
Phytophthora infestans = experiment: whole plant or invertebrate; type: in vivo; conditions: in Solanum lycopersicum, 168 h, read-out: efficacy
[3] = logP(HCOOH) reported with HPLC/MS
[4] = logP by HPLC on reversed phase columns, method [a], pH 2.3 with 0.1% phosphoric acid and acetonitrile; type: physicochemical; conditions: reversed phase HPLC columns; method [a]: pH 2.3, 0.1% phosphoric acid and acetonitrile as eluent; EEC directive 79/831 Annex V.A8, reversed phase HPLC; read-out: log p
[5] = no method mark printed in the cell
[6] = HCOOH (formic acid), logP(HCOOH), HPLC/MS
[7] = reversed phase HPLC column, pH 2.7, log p, method [b]: LC-MS at pH 2.7, 0.1% formic acid in water and acetonitrile, linear gradient 10% to 95% acetonitrile
[8] = method [a]: pH 2.3 with 0.1% phosphoric acid and acetonitrile as eluent

**Q.** With `Cn1nnnc1C(=NOCc1cccc(Br)n1)c1ccccc1` (single isomer, unassigned) [Example 306] as the molecule, how does the log p [1, 5] read?
**A.** 3.19

**Q.** With `Cn1nnnc1C(=NOCc1cccc(Br)n1)c1ccccc1` (single isomer, unassigned) [Example 307] as the molecule, how does the log p [1, 5] read?
**A.** 3.00

**Q.** With `COCC#Cc1cccc(CON=C(c2ccccc2)c2nnnn2C)n1` [Example 24] as the molecule, how does the log p [2] read?
**A.** 3.04^[c]

**Q.** Which pest or weed control at 500 ppm (Phytophthora infestans) does the source give for `Cn1nnnc1C(=NOCc1csc(C#CC2CC2)n1)c1ccccc1` [Example 70, N-{[2-(cyclopropylethynyl)-1,3-thiazol-4-yl]methoxy}-1-(1-methyl-1H-tetrazol-5-yl)-1-phenylmethanimine] here?
**A.** ≥ 70%

**Q.** What about the chromatographic logP [3, 6] of the same molecule?
**A.** 3.58

**Q.** What about the chromatographic logP [4] of the same molecule?
**A.** 3.58

**Q.** What does the source list for `Cn1nnnc1C(=NOCc1cccc(/C=C/C2CCCCC2)n1)c1ccccc1` [Example 93, N-({6-[(E)-2-cyclohexylvinyl]pyridin-2-yl}methoxy)-1-(1-methyl-1H-tetrazol-5-yl)-1-phenylmethanimine]?
**A.** pest or weed control at 500 ppm (Phytophthora infestans): ≥ 70%; chromatographic logP ([3]; HPLC, logP(HCOOH), HPLC/MS): 5.05; chromatographic logP [4]: 5.05

**Q.** For `Cn1nnnc1C(=NOCc1nc(Cl)sc1Cl)c1ccccc1` [Example 113, N-[(2,5-dichloro-1,3-thiazol-4-yl)methoxy]-1-(1-methyl-1H-tetrazol-5-yl)-1-phenylmethanimine], which pest or weed control at 500 ppm (Phytophthora infestans) is on record?
**A.** ≥ 70%

**Q.** And the chromatographic logP [3, 6]?
**A.** 3.67

**Q.** What about the chromatographic logP [3, 7] of the same molecule?
**A.** 3.67

**Q.** Which results are given for `Cn1nnnc1C(=NOCc1nc(C#CC2CC2)sc1Cl)c1ccccc1` [Example 114, N-{[5-chloro-2-(cyclopropylethynyl)-1,3-thiazol-4-yl]methoxy}-1-(1-methyl-1H-tetrazol-5-yl)-1-phenylmethanimine]?
**A.** pest or weed control at 500 ppm (Phytophthora infestans): ≥ 70%; chromatographic logP [3, 6]: 4.59; chromatographic logP [3, 7]: 4.59

**Q.** Which results are given for `COc1ccc(CON=C(c2ccccc2)c2nnnn2C)nc1C#CC1CC1` [Example 126, N-{[6-(cyclopropylethynyl)-5-methoxypyridin-2-yl]methoxy}-1-(1-methyl-1H-tetrazol-5-yl)-1-phenylmethanimine]?
**A.** pest or weed control at 500 ppm (Phytophthora infestans): ≥ 70%; chromatographic logP [3, 6]: 3.23; chromatographic logP [3, 7]: 3.23

**Q.** Which results are given for `Cn1nnnc1C(=NOCc1cccc(C2OCCO2)n1)c1ccccc1` [Example 160, N-{[6-(1,3-dioxolan-2-yl)pyridin-2-yl]methoxy}-1-(1-methyl-1H-tetrazol-5-yl)-1-phenylmethanimine]?
**A.** pest or weed control at 500 ppm (Phytophthora infestans): ≥ 70%; chromatographic logP ([3]; HPLC, logP(HCOOH), HPLC/MS): 2.47; chromatographic logP ([3]; reversed phase HPLC column, pH 7.8, log p, method [c]: LC-MS, pH 7.8 with 0.001 molar ammonium hydrogen carbonate solution in water, linear gradient 10% to 95% acetonitrile): 2.47

**Q.** Which chromatographic logP [1, 8] does the source give for `Cn1nnnc1C(=NOCc1cccc(C=NOC2CCCCC2)n1)c1ccccc1` [Example 274, N-[(6-{[(cyclohexyloxy)imino]methyl}pyridin-2-yl)methoxy]-1-(1-methyl-1H-tetrazol-5-yl)-1-phenylmethanimine] here?
**A.** 4.89

**Q.** What about the chromatographic logP ([3]; logP(HCOOH), HPLC/MS) of the same molecule?
**A.** 4.89

**Q.** Which results are given for `Cn1nnnc1C(=NOCc1cccc(CO)n1)c1ccccc1` [Example 275, {6-[({[(1-methyl-1H-tetrazol-5-yl)(phenyl)methylene]amino}oxy)methyl]pyridin-2-yl}methanol]?
**A.** chromatographic logP [1, 8]: 1.76; chromatographic logP [3, 6]: 1.76

**Q.** Which log p [1, 8] does the source give for `CCCCC1CC(c2cccc(CON=C(c3ccccc3)c3nnnn3C)n2)=NO1` (centres unmarked) [Example 276] here?
**A.** 4.26^[a]

**Q.** Which log p [1, 8] does the source give for `Cn1nnnc1C(=NOCc1csc(/C=C/C2CC2)n1)c1ccccc1` [Example 277] here?
**A.** 3.58^[a]

**Q.** With `CCCC/C=C/c1nc(CON=C(c2ccccc2)c2nnnn2C)cs1` [Example 278, N-({2-[(1E)-hex-1-en-1-yl]-1,3-thiazol-4-yl}methoxy)-1-(1-methyl-1H-tetrazol-5-yl)-1-phenylmethanimine] as the molecule, how does the chromatographic logP [1, 8] read?
**A.** 4.56

**Q.** What about the chromatographic logP ([3]; HPLC, logP(HCOOH), HPLC/MS) of the same molecule?
**A.** 4.56

**Q.** For `Cn1nnnc1C(=NOCc1csc(/C=C/CC2CCCC2)n1)c1ccccc1` [Example 279], which log p [1, 8] is on record?
**A.** 5.14^[a]

**Q.** With `Cn1nnnc1C(=NOCc1cccc(NCC2CCCC2)n1)c1ccccc1` [Example 288] as the molecule, how does the log p [1, 8] read?
**A.** 2.3^[a]

**Q.** With `Cn1nnnc1C(=NOCc1cccc(NCC2CCCCC2)n1)c1ccccc1` [Example 289] as the molecule, how does the log p [1, 8] read?
**A.** 2.43^[a]
